Assay results: ChEMBL document CHEMBL1201862, “PubChem BioAssay data set” (2004)
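Five compound concentrations were applied to cells in 96-well plates for 48 hours; endpoints were derived by simple linear interpolation of the resulting dose-response curve. GI50 marks 50% less growth.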 Active and inactive are the calls of the source. Cut-off read from the data, not from the text of the source: active = GI50 up to about 1.1 µM and inactive = higher.

How the values were obtained:
Assay in all cases: DTP human tumour cell line panel, 48 h
CAKI-1 = test system: CAKI-1
COLO 205 = test system: COLO 205
DU-145 = test system: DU-145
HCT-15 = test system: HCT-15
HL-60 = test system: HL-60
HOP-62 = test system: HOP-62
IGROV-1 = test system: IGROV-1
M14 = test system: M14
MDA-MB-231 = test system: MDA-MB-231
NCI-H23 = test system: NCI-H23
NCI-H460 = test system: NCI-H460
OVCAR-5 = test system: OVCAR-5
OVCAR-8 = test system: OVCAR-8
RXF 393 = test system: RXF 393
SK-MEL-28 = test system: SK-MEL-28
SK-MEL-5 = test system: SK-MEL-5
SNB-75 = test system: SNB-75
T47D = test system: T47D
UO-31 = test system: UO-31

| Compound | GI50 (CAKI-1) | GI50 (COLO 205) | GI50 (DU-145) | GI50 (HCT-15) [µM] | GI50 (HL-60) | GI50 (HOP-62) | GI50 (IGROV-1) | GI50 (M14) | GI50 (MDA-MB-231) | GI50 (NCI-H23) | GI50 (NCI-H460) | GI50 (OVCAR-5) | GI50 (OVCAR-8) | GI50 (RXF 393) | GI50 (SK-MEL-28) | GI50 (SK-MEL-5) | GI50 (SNB-75) | GI50 (T47D) | GI50 (UO-31) |
| --- | --- | --- | --- | --- | --- | --- | --- | --- | --- | --- | --- | --- | --- | --- | --- | --- | --- | --- | --- |
| CCN(CC)CCCNc1[nH]c2ccccc2c2nc3ccc(OC)cc3c1-2 | 2.71 µM (inactive) | 1.32 µM (inactive) | 2.64 µM (inactive) | 1.21 | 1.21 µM (inactive) | 1.43 µM (inactive) | 1.71 µM (inactive) | 1.71 µM (inactive) | 1.54 µM (inactive) | 1.57 µM (inactive) | 0.367 µM (active) | 1.28 µM (inactive) | 0.824 µM (active) | 1.59 µM (inactive) | 1.69 µM (inactive) | 1.73 µM (inactive) | 1.77 µM (inactive) | 10 µM (inactive) | 4.01 µM (inactive) |
| CCOc1cc(NC(C)=O)ccc1C(=O)NN1C(=O)C(Cl)C1c1ccc(O)c(OC)c1 (stereo not given) | 16.5 µM (inactive) | 15.6 µM (inactive) | 15.6 µM (inactive) | 14.2 | 15.7 µM (inactive) | 16.1 µM (inactive) | 12.8 µM (inactive) | 11.8 µM (inactive) | 13.3 µM (inactive) | 11.7 µM (inactive) | 16.4 µM (inactive) | 19.1 µM (inactive) | 24.4 µM (inactive) | 12 µM (inactive) | 16.9 µM (inactive) | 10.4 µM (inactive) | 11.8 µM (inactive) | 12.2 µM (inactive) | 2.43 µM (inactive) |
| Cn1cncc1CC1COC(=O)C1C(O)c1ccccc1 (stereo not given) | > 100 µM (inactive) | > 100 µM (inactive) | > 100 µM (inactive) | > 100 | > 100 µM (inactive) | > 100 µM (inactive) | > 100 µM (inactive) | > 100 µM (inactive) | > 100 µM (inactive) | > 100 µM (inactive) | > 100 µM (inactive) | > 100 µM (inactive) | > 100 µM (inactive) | > 100 µM (inactive) | > 100 µM (inactive) | > 100 µM (inactive) | > 100 µM (inactive) | > 100 µM (inactive) | – |
| CNC(=O)[C@H](Cc1ccccc1)NC(=O)N(CCC#N)CCN(C(=O)N[C@@H](Cc1ccccc1)C(=O)OC)c1ccccc1 | > 100 µM (inactive) | > 100 µM (inactive) | > 100 µM (inactive) | > 100 | > 100 µM (inactive) | > 100 µM (inactive) | – | > 100 µM (inactive) | > 100 µM (inactive) | > 100 µM (inactive) | > 100 µM (inactive) | > 100 µM (inactive) | > 100 µM (inactive) | > 100 µM (inactive) | > 100 µM (inactive) | > 100 µM (inactive) | 16.6 µM (inactive) | > 100 µM (inactive) | > 100 µM (inactive) |
| COCCCNC(=O)C1=C(C)NC(C)=C(C(=O)NCCCOC)C1 | > 100 µM (inactive) | > 100 µM (inactive) | > 100 µM (inactive) | – | > 100 µM (inactive) | > 100 µM (inactive) | 11.3 µM (inactive) | > 100 µM (inactive) | > 100 µM (inactive) | > 100 µM (inactive) | > 100 µM (inactive) | > 100 µM (inactive) | > 100 µM (inactive) | > 100 µM (inactive) | > 100 µM (inactive) | > 100 µM (inactive) | 21 µM (inactive) | > 100 µM (inactive) | 71.4 µM (inactive) |
| COc1ccc(OC)c(NS(=O)(=O)c2ccc3nc(C)n(NS(=O)(=O)c4cc(OC)ccc4OC)c(=O)c3c2)c1 | > 100 µM (inactive) | > 100 µM (inactive) | > 100 µM (inactive) | > 100 | 26.2 µM (inactive) | > 100 µM (inactive) | > 100 µM (inactive) | > 100 µM (inactive) | > 100 µM (inactive) | 69.5 µM (inactive) | 82.4 µM (inactive) | > 100 µM (inactive) | > 100 µM (inactive) | > 100 µM (inactive) | > 100 µM (inactive) | 26.4 µM (inactive) | > 100 µM (inactive) | > 100 µM (inactive) | 87.9 µM (inactive) |
| CC(=O)N1C2=CCCC2(C)c2ccccc21 (stereo not given) | > 100 µM (inactive) | 57.9 µM (inactive) | > 100 µM (inactive) | > 100 | 23.7 µM (inactive) | > 100 µM (inactive) | 63.5 µM (inactive) | > 100 µM (inactive) | > 100 µM (inactive) | 86.9 µM (inactive) | 72.8 µM (inactive) | > 100 µM (inactive) | > 100 µM (inactive) | > 100 µM (inactive) | > 100 µM (inactive) | 41.1 µM (inactive) | 38.3 µM (inactive) | 79.3 µM (inactive) | 57.5 µM (inactive) |
| Cn1nc(-c2ccccc2)nc1[N+](=O)[O-] | > 10 µM (inactive) | > 10 µM (inactive) | > 10 µM (inactive) | > 10 | > 10 µM (inactive) | > 10 µM (inactive) | > 10 µM (inactive) | > 10 µM (inactive) | > 10 µM (inactive) | > 10 µM (inactive) | > 10 µM (inactive) | > 10 µM (inactive) | > 10 µM (inactive) | > 10 µM (inactive) | > 10 µM (inactive) | > 10 µM (inactive) | > 10 µM (inactive) | > 10 µM (inactive) | > 10 µM (inactive) |
| N#Cc1c(-c2ccccc2)c2c([nH]c1=O)-c1cc([N+](=O)[O-])ccc1CCC2 | 41.3 µM (inactive) | 26.9 µM (inactive) | 25.5 µM (inactive) | 20.9 | 35.2 µM (inactive) | 22.7 µM (inactive) | 29.9 µM (inactive) | 33.1 µM (inactive) | 51.8 µM (inactive) | 25.2 µM (inactive) | 30.4 µM (inactive) | 83.4 µM (inactive) | 34.3 µM (inactive) | 12.1 µM (inactive) | 29.8 µM (inactive) | 27.9 µM (inactive) | < 0.01 µM (active) | 19.3 µM (inactive) | 41.4 µM (inactive) |
| CCCN1C(=O)CCC2=C1CCc1c2ccc(Cl)c1Cl | 31.6 µM (inactive) | 51.9 µM (inactive) | 5.19 µM (inactive) | 50.6 | 15.8 µM (inactive) | 38.5 µM (inactive) | 30.8 µM (inactive) | 31.9 µM (inactive) | 16.8 µM (inactive) | 29.4 µM (inactive) | 43.6 µM (inactive) | 8.41 µM (inactive) | 23.2 µM (inactive) | 17.9 µM (inactive) | 92 µM (inactive) | 15.4 µM (inactive) | 15.2 µM (inactive) | 36.7 µM (inactive) | 53 µM (inactive) |
| OC1CN=C2c3ccccc3C(O)(c3ccc(Cl)cc3)N2C1 (stereo not given) | > 100 µM (inactive) | 19.5 µM (inactive) | > 100 µM (inactive) | – | 44.4 µM (inactive) | 55.5 µM (inactive) | 87.9 µM (inactive) | 14.8 µM (inactive) | 57.8 µM (inactive) | 53.3 µM (inactive) | 43.9 µM (inactive) | 27 µM (inactive) | 77.4 µM (inactive) | 50 µM (inactive) | 49.7 µM (inactive) | > 10 µM (inactive) | 19.8 µM (inactive) | > 100 µM (inactive) | 37.4 µM (inactive) |
